{"source": "patent US8703438B2", "about": "“Ligand binding stabilization method for drug target identification” (The Regents of the University of California, priority 2008, dated 2014)", "format_in_all_cases": "binding", "key": {"[1]": {"molecular_target": "T1, proteins of human Jurkat cell lysate (EF-1alpha isoforms and others) (Homo sapiens, UniProt P06733)", "T1 construct": "endogenous in cells; host or cells: Jurkat cells", "T1 sequence (P06733 whole entry, canonical isoform)": "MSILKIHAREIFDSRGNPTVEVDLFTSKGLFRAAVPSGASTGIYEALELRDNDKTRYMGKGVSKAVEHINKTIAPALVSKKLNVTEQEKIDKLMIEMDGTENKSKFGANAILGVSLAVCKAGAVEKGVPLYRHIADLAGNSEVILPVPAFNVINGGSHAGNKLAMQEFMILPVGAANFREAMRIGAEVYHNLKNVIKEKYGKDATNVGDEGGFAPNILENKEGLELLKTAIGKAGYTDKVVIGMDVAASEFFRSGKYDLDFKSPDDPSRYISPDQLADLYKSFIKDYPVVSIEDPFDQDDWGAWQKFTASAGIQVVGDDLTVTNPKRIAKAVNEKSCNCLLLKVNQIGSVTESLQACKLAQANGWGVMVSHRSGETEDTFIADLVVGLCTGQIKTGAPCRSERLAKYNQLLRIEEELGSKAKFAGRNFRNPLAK", "assay": "DARTS with DB-treated intact Jurkat cells, thermolysin, Coomassie staining and mass spectrometry of protected band", "conditions": "DB vs DMSO, mass spectrometry", "description": "(§1) The experiments above established that DARTS can efficiently test, screen, or verify drug-protein interactions when the protein is available in relatively pure form. For DARTS to be generally useful as a discovery tool, however, applicability to complex protein mixtures (such as cell lysates) would be desirable. […] Given that EF-1 alpha is a highly abundant protein, we first tested whether in the DARTS protocol DB would protect EF-1 alpha from proteolysis and result in a detectable difference.\n(§2) For FIGS. 3A and 3C, intact Jurkat cells were treated with DB from 100 pg/mL to 1 μg/mL or DMSO control for 30 min. Cells were lysed (without washing, in these experiments) with M-PER (Pierce) supplemented with protease and phosphatase inhibitors. After centrifugation (14,000 rpm, 15 min), lysates were diluted to the same final volume and protein concentration with M-PER and proteolysed in reaction buffer [50 mM Tris-HCl pH 8.0, 50 mM NaCl, 10 mM CaCl2]. All steps were performed on ice or at 4° C. to help prevent premature protein degradation. Each sample was then quickly warmed to room temperature and proteolysed with 1 μg thermolysin for every 15 μg lysate for 10 min. To stop proteolysis, 0.5 M EDTA (pH 8.0) was added to each sample at a 1:10 ratio, mixed well, and placed on ice.\n(§3) Gel bands were cut out and prepared for mass spec analysis with trypsin digestion as described in SI. Peptides were analyzed by LC/MS/MS on a Thermo LTQ-Orbitrap mass spectrometer with an Eksigent LC pump. For quantitative comparison of protein and peptide abundances, MS spectra were analyzed using the differential workflow of Rosetta Elucidator (Rosetta Inpharmatics) (54). Annotation was performed using PeptideTeller and ProteinTeller (see SI).\n(§4) The result could indicate lower affinity binding of DB to PGK1, or secondary effects on protein abundance because in this experiment the cells were treated with drug in vivo.\n(§5) Proteins were initially identified by searching the spectra against the human International Protein Index database (version 3.46) and the S. cerevisiae Swissprot database (May 2008) using the SEQUEST algorithm (Eng et al. (1994) J Am Soc Mass Spectrom 5: 976-989) integrated into the Bioworks software package. Each peptide met the following criteria: XCorr ≧2 (+1), ≧3 (+2), ≧4 (+3), ≧5 (+4), and DeltaCN>0.1. For quantitative comparison of protein and peptide abundances, MS spectra were analyzed using the differential workflow of the Rosetta Elucidator software system (Rosetta Inpharmatics) (Neubert et al. (2008) J Proteome Res 7: 2270-2279). Annotation was performed using PeptideTeller and ProteinTeller with a minimum probability of 0.99 and predicted error of 0.0. Protein ratio data were generated with a P-value cutoff of 0.01 for all proteins with a peptide number >1. Intensity scaling was performed against the mean of feature signals, with 10% of outliers removed from the baseline dataset. Similar results were obtained in analysis without intensity scaling (FIG. 9A)."}, "[2]": {"molecular_target": "T2, proteins of human Jurkat cell lysate (EF-1alpha isoforms and others) (Homo sapiens, UniProt P00558)", "T2 construct": "endogenous in cells; host or cells: Jurkat cells", "T2 sequence (P00558 1-417)": "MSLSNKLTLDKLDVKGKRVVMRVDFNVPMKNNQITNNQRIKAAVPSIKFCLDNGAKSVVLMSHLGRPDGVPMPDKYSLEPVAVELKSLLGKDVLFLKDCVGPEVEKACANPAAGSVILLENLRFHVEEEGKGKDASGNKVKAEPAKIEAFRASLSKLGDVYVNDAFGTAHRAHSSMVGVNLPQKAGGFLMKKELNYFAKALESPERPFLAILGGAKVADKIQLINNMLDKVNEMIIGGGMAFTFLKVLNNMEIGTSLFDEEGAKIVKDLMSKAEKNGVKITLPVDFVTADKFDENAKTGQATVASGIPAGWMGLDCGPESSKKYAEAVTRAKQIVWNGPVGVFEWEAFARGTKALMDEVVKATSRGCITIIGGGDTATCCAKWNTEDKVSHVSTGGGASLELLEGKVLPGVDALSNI", "assay": "DARTS with DB-treated intact Jurkat cells, thermolysin, Coomassie staining and mass spectrometry of protected band", "conditions": "DB vs DMSO, mass spectrometry", "description": "as §1, §2, §3, §4, §5"}, "[3]": {"molecular_target": "T3, proteins of human Jurkat cell lysate (EF-1alpha isoforms and others) (Homo sapiens, UniProt Q9P2R7)", "T3 construct": "endogenous in cells; host or cells: Jurkat cells", "T3 sequence (Q9P2R7 53-463)": "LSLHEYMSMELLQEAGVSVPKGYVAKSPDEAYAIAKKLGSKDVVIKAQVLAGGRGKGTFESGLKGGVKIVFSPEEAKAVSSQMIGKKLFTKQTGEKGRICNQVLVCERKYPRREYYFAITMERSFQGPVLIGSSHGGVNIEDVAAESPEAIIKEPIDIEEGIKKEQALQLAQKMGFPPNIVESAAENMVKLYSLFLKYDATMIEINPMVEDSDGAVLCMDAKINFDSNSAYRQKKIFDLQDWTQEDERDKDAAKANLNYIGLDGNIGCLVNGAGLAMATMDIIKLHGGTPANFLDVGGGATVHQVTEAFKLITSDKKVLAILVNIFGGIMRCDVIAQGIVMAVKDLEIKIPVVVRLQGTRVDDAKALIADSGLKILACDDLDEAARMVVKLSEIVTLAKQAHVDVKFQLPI", "assay": "DARTS with DB-treated intact Jurkat cells, thermolysin, Coomassie staining and mass spectrometry of protected band", "conditions": "DB vs DMSO, mass spectrometry", "description": "as §1, §2, §3, §4, §5"}, "[4]": {"molecular_target": "T4, proteins of human Jurkat cell lysate (EF-1alpha isoforms and others) (Homo sapiens, UniProt Q05639)", "T4 construct": "endogenous in cells; host or cells: Jurkat cells", "T4 sequence (Q05639 whole entry, canonical isoform)": "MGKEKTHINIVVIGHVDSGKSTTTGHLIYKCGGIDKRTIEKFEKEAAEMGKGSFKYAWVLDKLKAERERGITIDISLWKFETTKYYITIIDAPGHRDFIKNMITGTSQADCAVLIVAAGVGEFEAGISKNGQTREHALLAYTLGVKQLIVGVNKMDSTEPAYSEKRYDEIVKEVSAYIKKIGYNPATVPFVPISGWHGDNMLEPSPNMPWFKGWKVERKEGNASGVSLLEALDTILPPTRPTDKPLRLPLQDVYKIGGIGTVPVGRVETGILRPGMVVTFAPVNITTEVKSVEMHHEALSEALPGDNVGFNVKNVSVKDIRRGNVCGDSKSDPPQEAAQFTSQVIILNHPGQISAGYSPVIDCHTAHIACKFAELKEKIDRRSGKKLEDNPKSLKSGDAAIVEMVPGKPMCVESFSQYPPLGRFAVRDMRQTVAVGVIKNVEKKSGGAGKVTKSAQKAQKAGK", "assay": "DARTS with DB-treated intact Jurkat cells, thermolysin, Coomassie staining and mass spectrometry of protected band", "conditions": "DB vs DMSO, mass spectrometry", "description": "as §1, §2, §3, §4, §5"}, "[5]": {"system": "proteins of human Jurkat cell lysate (EF-1alpha isoforms and others)", "assay": "DARTS with DB-treated intact Jurkat cells, thermolysin, Coomassie staining and mass spectrometry of protected band", "conditions": "DB-treated Jurkat cells, 1 μg/mL, FIG. 3A", "description": "as §1, §2, §3, §4, §5"}, "[6]": {"molecular_target": "T5, proteins of human Jurkat cell lysate (EF-1alpha isoforms and others) (Homo sapiens, UniProt P68104)", "T5 construct": "endogenous in cells; host or cells: Jurkat cells", "T5 sequence (P68104 whole entry, canonical isoform)": "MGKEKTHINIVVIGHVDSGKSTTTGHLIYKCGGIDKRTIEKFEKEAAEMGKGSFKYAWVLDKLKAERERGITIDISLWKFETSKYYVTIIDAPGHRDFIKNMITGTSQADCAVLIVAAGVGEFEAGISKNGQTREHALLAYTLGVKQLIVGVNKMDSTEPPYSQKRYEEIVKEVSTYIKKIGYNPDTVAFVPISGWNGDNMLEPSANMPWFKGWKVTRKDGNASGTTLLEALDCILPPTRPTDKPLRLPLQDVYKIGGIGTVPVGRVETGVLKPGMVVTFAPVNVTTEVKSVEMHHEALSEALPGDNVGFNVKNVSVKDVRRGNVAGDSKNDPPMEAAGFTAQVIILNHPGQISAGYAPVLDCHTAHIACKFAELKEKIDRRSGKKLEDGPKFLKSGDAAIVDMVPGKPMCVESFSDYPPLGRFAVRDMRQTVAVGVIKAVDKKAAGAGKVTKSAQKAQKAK", "assay": "DARTS with DB-treated intact Jurkat cells, thermolysin, Coomassie staining and mass spectrometry of protected band", "conditions": "DB vs DMSO, mass spectrometry", "description": "as §1, §2, §3, §4, §5"}, "[7]": {"molecular_target": "T6, proteins of human Jurkat cell lysate (EF-1alpha isoforms and others) (Homo sapiens, UniProt Q13838)", "T6 construct": "endogenous in cells; host or cells: Jurkat cells", "T6 sequence (Q13838 whole entry, canonical isoform)": "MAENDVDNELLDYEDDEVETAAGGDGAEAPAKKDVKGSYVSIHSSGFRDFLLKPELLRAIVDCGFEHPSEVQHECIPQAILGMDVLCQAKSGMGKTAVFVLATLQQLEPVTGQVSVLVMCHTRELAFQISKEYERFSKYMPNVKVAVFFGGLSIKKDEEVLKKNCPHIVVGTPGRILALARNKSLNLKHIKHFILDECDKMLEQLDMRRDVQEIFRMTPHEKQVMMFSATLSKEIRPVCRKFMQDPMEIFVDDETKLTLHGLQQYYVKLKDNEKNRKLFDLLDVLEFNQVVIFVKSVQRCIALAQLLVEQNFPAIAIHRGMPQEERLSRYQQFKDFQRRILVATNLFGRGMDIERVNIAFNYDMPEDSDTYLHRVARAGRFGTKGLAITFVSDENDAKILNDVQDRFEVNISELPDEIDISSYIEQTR", "assay": "DARTS with DB-treated intact Jurkat cells, thermolysin, Coomassie staining and mass spectrometry of protected band", "conditions": "DB vs DMSO, mass spectrometry", "description": "as §1, §2, §3, §4, §5"}, "[8]": {"molecular_target": "T7, EF-1 alpha (Homo sapiens, UniProt P68104)", "T7 construct": "endogenous in cells; host or cells: Jurkat cells", "T7 sequence (P68104 2-462)": "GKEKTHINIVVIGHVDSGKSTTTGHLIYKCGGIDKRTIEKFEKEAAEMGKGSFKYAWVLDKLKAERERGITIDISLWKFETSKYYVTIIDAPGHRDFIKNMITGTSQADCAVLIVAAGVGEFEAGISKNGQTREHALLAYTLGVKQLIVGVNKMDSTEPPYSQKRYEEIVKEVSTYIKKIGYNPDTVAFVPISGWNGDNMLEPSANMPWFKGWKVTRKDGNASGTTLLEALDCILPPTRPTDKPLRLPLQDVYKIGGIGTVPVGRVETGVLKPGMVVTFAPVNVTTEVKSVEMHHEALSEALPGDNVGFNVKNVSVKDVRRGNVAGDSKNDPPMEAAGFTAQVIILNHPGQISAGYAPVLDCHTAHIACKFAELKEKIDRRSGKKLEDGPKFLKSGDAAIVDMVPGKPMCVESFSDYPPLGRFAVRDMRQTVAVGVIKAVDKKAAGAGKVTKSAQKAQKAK", "assay": "DARTS with DB, detection of EF-1 alpha by immunoblotting", "method": "FIG. 7 illustrates DARTS with Didemnin B using whole-cell lysates. Lysates from untreated human Jurkat cells were incubated with DMSO control or DB (1 ng/mL, 10 ng/mL, 100 ng/mL, 300 ng/mL, and 1 μg/mL) for 30 min at room temperature. Each sample was then split into two, which underwent thermolysin proteolysis, or mock digestion, respectively, followed by western blot analysis. Protection can be seen starting at 100 ng/mL.\nExamination of the protected band and the matching gel region of the control lane by mass spectrometry confirmed that EF-1 alpha was the primary protein present at higher abundance in the DB-treated sample (FIG. 3B). […] The generality of this approach is further supported by experiments using diverse protein-drug pairs ranging from nano- to micro-molar: mTOR-rapamycin, COX-2celecoxib, and SCF E3 ubiquitin ligase-inhibitor (FIG. 8). Furthermore, DARTS is not enzyme specific, and much higher overall digestion efficiency can be achieved using other proteases while retaining protection of the target protein (see Example 2 and FIG. 9).\nFor FIGS. 3A and 3C, intact Jurkat cells were treated with DB from 100 pg/mL to 1 μg/mL or DMSO control for 30 min. […]\nFor FIG. 7, human Jurkat cells were lysed in M-PER (Pierce) supplemented with protease and phosphatase inhibitors. Protein concentration was determined by BCA Protein Assay kit (Pierce). […]"}}, "data": [{"smiles": "CC[C@H](C)[C@H]1NC(=O)[C@@H](NC(=O)[C@@H](CC(C)C)N(C)C(=O)[C@@H]2CCCN2C(=O)C(C)O)[C@@H](C)OC(=O)[C@H](Cc2ccc(OC)cc2)N(C)C(=O)[C@@H]2CCCN2C(=O)[C@H](CC(C)C)NC(=O)[C@@H](C)C(=O)[C@H](C(C)C)OC(=O)C[C@@H]1O", "note": "(stereo partly drawn) [DB, didemnin B]", "values": [{"measurement": "change of ENO1 in protected band (depleted)", "setting": "[1]", "result": "−1.8", "unit": "fold"}, {"measurement": "enrichment of PGK1 in protected band", "setting": "[2]", "result": 2.4, "unit": "fold"}, {"measurement": "enrichment of SUCLA2 in protected band", "setting": "[3]", "result": 11.7, "unit": "fold"}, {"measurement": "enrichment of EEF1A2 in protected band", "setting": "[4]", "result": 21.7, "unit": "fold"}, {"measurement": "protected band on Coomassie-stained gel after thermolysin", "setting": "[5]", "result": "strong protected band"}, {"measurement": "enrichment of EEF1A1 in protected band", "setting": "[6]", "result": 18.7, "unit": "fold"}, {"measurement": "enrichment of BAT1 in protected band", "setting": "[7]", "result": 7.5, "unit": "fold"}, {"measurement": "concentration at which protection starts", "setting": "[8]; Jurkat lysates incubated in vitro 30 min, thermolysin, western blot, FIG. 7", "result": 100, "unit": "ng/mL"}, {"measurement": "proteolytic protection of EF-1 alpha by immunoblotting", "setting": "[8]; intact cells treated and lysates incubated in vitro", "result": "concentration dependent proteolytic protection"}]}]}
